Measured values as given in US4120864A, “1,2,4-4H-triazole derivatives” (Rohm and Haas Company, priority 1972, dated 1978).
Counter-ions that a name gives are not always drawn. Like-named read-outs stand apart in the source and are kept apart here.

Columns and labels:
[1] = test system: Botrytis cinerea; settings: in vivo
[2] = test system: wheat leaf rust, Puccinia recondita; assay: whole plant or invertebrate; type: in vivo; settings: foliar; for pest or weed control at 280.212 g/ha: read-out: % Control (with 1" of rain), foliar, 0.25 lb., 1" of rain; for pest or weed control at 1120.85 g/ha: read-out: % Control (with 1" of rain), foliar, 1 lb., 1" of rain
[3] = test system: Phytophthora infestans; type: in vivo; settings: foliar application at 1200 ppm or root uptake from treated soil containing 20 ppm
[4] = test system: wheat leaf rust, Puccinia recondita; assay: whole plant or invertebrate; type: in vivo; settings: foliar; for pest or weed control at 280.212 g/ha: read-out: % Control (without rain), foliar, 0.25 lb.; for pest or weed control at 1120.85 g/ha: read-out: % Control (without rain), foliar, 1 lb.
[5] = test system: wheat leaf rust, Puccinia recondita; assay: Foliar systemic activity on leaf rust; type: in vivo
Text: Another type of systemic test was run in which pots of approximately 5 inch high wheat plants were sprayed with varying concentrations of the test compound. Thirty-six hours later they were sprayed six minutes in a rain machine which amounted to about one inch of normal rainfall. The plants were then placed in a greenhouse for 7 days and then inoculated with a spore suspension of wheat leaf rust, Puccinia recondita. About 7 days later lesion counts were made on ten leaves representing the sprayed leaves and new growth from each replicate and compared with similar pots of wheat plants which were untreated with a chemical and the percent disease control determined. Disease control on the new growth is a measure of systemic activity. The commercial product known by the trademarked name Plantvax, which is 2,3-dihydro-5-carboxanilido-6-methyl-1,4-oxathiin-4,4-dioxide, was used as a standard.

[6] = test system: wheat leaf rust, Puccinia recondita; type: in vivo
[7] = test system: leaf rust on spring wheat; assay: Systemic field test, leaf rust on spring wheat; type: in vivo; settings: 36 days after treatment
[8] = test system: leaf rust on winter wheat; assay: Systemic field test, leaf rust on winter wheat; type: in vivo; settings: 46 days after application, untreated 1109
[9] = test system: rice blast, Piricularia oryzae; type: in vivo; settings: foliar application, 1200 ppm

Compound	pest or weed control at 280.212 g/ha [2] [%]	pest or weed control at 1120.85 g/ha [2] [%]	pest or weed control at 280.212 g/ha [4] [%]	pest or weed control at 1120.85 g/ha [4] [%]	% Rust Control, New growth ([5]; 1/2 lb./100 gal.) [%]	% Rust Control, Sprayed Leaf ([5]; 1/2 lb./100 gal.) [%]	% Rust Control, New growth ([5]; 1/6 lb./100 gal.) [%]	% Rust Control, Sprayed Leaf ([5]; 1/6 lb./100 gal.) [%]	% Rust Control, New growth ([5]; 1/12 lb./100 gal.) [%]	% Rust Control, Sprayed Leaf ([5]; 1/12 lb./100 gal.) [%]	% Systemic Wheat Leaf Rust Control ([6]; 2.5 ppm in soil) [%]	% Systemic Wheat Leaf Rust Control ([6]; 5 ppm in soil) [%]	% Systemic Wheat Leaf Rust Control ([6]; 10 ppm in soil) [%]	also measured
4-(2-ethylhexyl)-1,2,4-triazole [Example 11]														control of Botrytis cinerea on broad bean [1]: 50-85%
OCCCn1cnnc1 [Example 18, 4-(3-hydroxypropyl)-1,2,4-triazole]	0	0	0	0										control of Phytophthora infestans [3]: good control
CCCCCCCCn1cnnc1 [Example 10, 4-n-octyl-1,2,4-triazole]														control of Phytophthora infestans [3]: good control
CCCCn1cnnc1SC(=O)NC [Example 114, 3-methylcarbamoylmercapto-4-n-butyl-1,2,4-triazole]	100	100	100	100	98	96	79	83	67	68	96	100	100	
c1ccc(OCCn2cnnc2)cc1 [Example 25, 4-(2-phenoxyethyl)-1,2,4-triazole]	0	0	0	0										control of Phytophthora infestans [3]: good control
CCCCn1c(S)nnc1C(=O)O [Example 94, 3-mercapto-4-n-butyl-5-carboxy-1,2,4-triazole]	82	83	100	100	86	99	73	91	61	71	95	99	100	% Leaves infected ([7]; 0.5 lbs./acre): 35%; % Leaves infected ([7]; 1 lbs./acre): 17%; % Leaves infected ([7]; 2 lbs./acre): 7%
CCCCn1c(S)nnc1C(=O)O [Example 95, triethanolamine salt of 3-mercapto-4-n-butyl-5-carboxy-1,2,4-triazole]					90	90	75	78	63	46	98	99	100	% Control (with 1" of rain) ([2]; 0.25 lb.): 100%; % Control (with 1" of rain) ([2]; 1 lb.): 100%; % Control (without rain) ([4]; 0.25 lb.): 98%; % Control (without rain) ([4]; 1 lb.): 99%
CCOCCn1cnnc1 [Example 24, 4-(2-ethoxyethyl)-1,2,4-triazole]	50	95	80	95										control of Phytophthora infestans [3]: good control
CCCCCCn1cnnc1S [Example 79, 3-mercapto-4-n-hexyl-1,2,4-triazole]	100	100	100	100	65	96	48	88	38	85	0	0	54	
CCCCn1cnnc1Sc1ccc([N+](=O)[O-])cc1[N+](=O)[O-] [Example 127, 3-(2,4-dinitrophenylmercapto)-4-n-butyl-1,2,4-triazole]		100	100	100	81	98	69	93	57	81	67	94	100	
CCCCn1cnnc1S [Example 76, 3-mercapto-4-n-butyl-1,2,4-triazole]	100	100	100	100	90	97	77	88	75	80	83	97	100	% Leaves infected ([7]; 0.5 lbs./acre): 23%; % Leaves infected ([7]; 1 lbs./acre): 10%; % Leaves infected ([7]; 2 lbs./acre): 4%; No. of lesions/800 leaves ([8]; 0.5 lbs./acre): 453 lesions/800 leaves; No. of lesions/800 leaves ([8]; 1 lbs./acre): 239 lesions/800 leaves; No. of lesions/800 leaves ([8]; 2 lbs./acre): 89 lesions/800 leaves
c1ccc(Cn2cnnc2)cc1 [Example 49, 4-benzyl-1,2,4-triazole]	100	100	95	100	87	99	54	76	46	42	96	98	99	
CCCCn1cnnc1SCCOCC [Example 107, 3-(2-ethoxyethylmercapto)-4-n-butyl-1,2,4-triazole]	100	100	100	100	61	73	23	27	17	25	52	85	89	
Sc1nncn1Cc1ccccc1 [Example 84, 3-mercapto-4-benzyl-1,2,4-triazole]	100	100	100	100	54	78	34	63	36	54	0	34	64	
CCCCn1c(S)nnc1C(=O)OCC [Example 97]	100	100	100	100	54	86	75	73	67	81	93	95	100	
CCCCCCCCCCCCn1cnnc1 [Example 13, 4-n-dodecyl-1,2,4-triazole]	0	30	20	60										control of rice blast, Piricularia oryzae [9]: 95-100%
CCOCCCn1cnnc1 [Example 47]	30	55	80	80										control of Phytophthora infestans [3]: good control
CC1=C(C(=O)Nc2ccccc2)S(=O)(=O)CCO1 [Plantvax, 2,3-dihydro-5-carboxanilido-6-methyl-1,4-oxathiin-4,4-dioxide, reference compound]					38	49	32	37		3				% Leaves infected ([7]; 0.5 lbs./acre): 79%; % Leaves infected ([7]; 1 lbs./acre): 78%; % Leaves infected ([7]; 2 lbs./acre): 75%; No. of lesions/800 leaves ([8]; 0.5 lbs./acre): 1113 lesions/800 leaves; No. of lesions/800 leaves ([8]; 1 lbs./acre): 1017 lesions/800 leaves; No. of lesions/800 leaves ([8]; 2 lbs./acre): 690 lesions/800 leaves
